The assay addresses IRAK4 (Homo sapiens (Human), UniProt Q9NWZ3). The assay is described as follows: Determination of IRAK4 kinase activity (IMAP fluorescence polarization, phosphorylation of fluorescent peptide substrate). Format: biochemical. The settings on record: 0.5 nM GST tagged IRAK4, 100 nM peptide substrate RP7030, 100 μM ATP, 30 minutes at 25° C. How it is done:
The kinase activity of IRAK4 is determined by its ability to catalyze the phosphorylation of a fluorescent polypeptide substrate. The extent of phosphorylation is measured using IMAP technology (Molecular Devices) where the phosphorylated fluorescent substrate binds to the large M(III)-based nanoparticles which reduces the rotational speed of the substrate and thus increases its fluorescent polarization (FP).
Procedure: A 20 μl reaction mixture contains 10 mM TriHCl, pH 7.2, 0.5 nM GST tagged IRAK4 (SignalChem), 100 nM fluorescent peptide substrate (RP7030, Molecular Devices), 100 μM ATP, 1 mM DTT, 1 mM MgCl2, and 0.01% Tween 20. The reaction is initiated by the addition of ATP. After incubation for 30 minutes at 25° C., 60 μl of Progressive IMAP Reagent (Molecular Devices) is added to stop the reaction. Change in RP7030's FP is determined by a FP reader (Analyst HT, LJL BioSystems). Analytical LCMS Conditions: • Condition A: Phenomenex Luna C18 (4.6×250 mm), 95:5 to 5:95 water:MeCN (0.05% TFA), over 10 min, hold 6 min. • Condition B: Agilent SBC (3.0×50 mm), solvent A: H20-0.1% TFA; • solvent B: ACN-0.1% TFA; GRADIENT TABLE: 0 min:10% B, 0.3 min: 10% B, 1.5 min: 95% B, 2.70 min: 95% B, 2.76 min: 10% B, stop time 3.60 min.
In general terms: In fluorescence polarisation assays a small probe gives low polarisation when free and higher when bound to something large.
IRAK4, sequence (Q9NWZ3 whole entry): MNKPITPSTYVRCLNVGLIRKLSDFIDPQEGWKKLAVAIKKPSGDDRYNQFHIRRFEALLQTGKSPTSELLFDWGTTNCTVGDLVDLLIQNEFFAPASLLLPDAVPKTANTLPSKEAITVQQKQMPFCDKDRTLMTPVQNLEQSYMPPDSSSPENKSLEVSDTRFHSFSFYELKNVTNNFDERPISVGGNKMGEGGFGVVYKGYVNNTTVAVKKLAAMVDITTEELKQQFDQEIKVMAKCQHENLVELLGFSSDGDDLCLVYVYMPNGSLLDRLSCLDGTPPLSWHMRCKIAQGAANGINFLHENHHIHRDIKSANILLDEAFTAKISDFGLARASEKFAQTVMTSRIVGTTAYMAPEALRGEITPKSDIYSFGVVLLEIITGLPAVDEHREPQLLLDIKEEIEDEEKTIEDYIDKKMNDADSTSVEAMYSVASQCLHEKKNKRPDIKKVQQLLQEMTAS
Broadly, the IC50 is the point on the concentration scale where inhibition reaches its midpoint. Read a high IC50 as a need for much substance. For `OC[C@H]1C[C@@H](Nc2nc(Nc3ccnc(F)c3)ncc2-c2nc3ccccc3s2)[C@H](O)[C@@H]1O` [Example 6, (1R,2S,3R,5R)-3-((5-(benzo[d]thiazol-2-yl)-2-((2-fluoropyridin-4-yl)amino)pyrimidin-4-yl)amino)-5-(hydroxymethyl)cyclopentane-1,2-diol], the IC50 is 2560 nM.

The compound `COc1cc(Nc2ncc(-c3nc4ccccc4s3)c(N[C@@H]3C[C@H](CO)[C@@H](O)[C@H]3O)n2)ccn1` [Example 7, (1R,2S,3R,5R)-3-((5-(benzo[d]thiazol-2-yl)-2-((2-methoxypyridin-4-yl)amino)pyrimidin-4-yl)amino)-5-(hydroxymethyl)cyclopentane-1,2-diol] returned an IC50 of 4.6 nM.

`Cc1cnccc1Nc1ncc(-c2nc3ccccc3s2)c(N[C@@H]2C[C@H](CO)[C@@H](O)[C@H]2O)n1` [Example 8, (1R,2S,3R,5R)-3-((5-(benzo[d]thiazol-2-yl)-2-((3-methylpyridin-4-yl)amino)pyrimidin-4-yl)amino)-5-(hydroxymethyl)cyclopentane-1,2-diol] came in with an IC50 of 516 nM.

On to `Cc1cc(Nc2ncc(-c3nc4ccccc4s3)c(N[C@@H]3C[C@H](CO)[C@@H](O)[C@H]3O)n2)cc(C)n1` [Example 9, (1R,2S,3R,5R)-3-((5-(benzo[d]thiazol-2-yl)-2-((2,6-dimethylpyridin-4-yl)amino)pyrimidin-4-yl)amino)-5-(hydroxymethyl)cyclopentane-1,2-diol], for which the 50% inhibitory concentration (IC50) worked out at 0.32 nM.

Take `COc1ccc(Nc2ncc(-c3nc4ccccc4s3)c(N[C@@H]3C[C@H](CO)[C@@H](O)[C@H]3O)n2)cc1` [Example 10, (1R,2S,3R,5R)-3-((5-(benzo[d]thiazol-2-yl)-2-((4-methoxyphenyl)amino)pyrimidin-4-yl)amino)-5-(hydroxymethyl)cyclopentane-1,2-diol]: 14 nM corresponded to half-maximal inhibition (IC50).

Consider `Nc1ncc(-c2nc(-c3ccccc3)cs2)c(N[C@@H]2C[C@H](CO)[C@@H](O)[C@H]2O)n1` [Example 11, (1R,2S,3R,5R)-3-((2-amino-5-(4-phenylthiazol-2-yl)pyrimidin-4-yl)amino)-5-(hydroxymethyl)cyclopentane-1,2-diol], for which the half-inhibitory concentration (IC50) is 409 nM.

`OC[C@H]1C[C@@H](Nc2nc(NC3COC3)ncc2-c2nc3ccccc3s2)[C@H](O)[C@@H]1O` [Example 12, (1R,2S,3R,5R)-3-((5-(benzo[d]thiazol-2-yl)-2-(oxetan-3-ylamino)pyrimidin-4-yl)amino)-5-(hydroxymethyl)cyclopentane-1,2-diol] returned a 50% inhibitory concentration (IC50) of 236 nM.

Compound `OC[C@H]1C[C@@H](Nc2nc(Nc3cccc(F)c3)ncc2-c2nc3ccccc3s2)[C@H](O)[C@@H]1O` [Example 13, (1R,2S,3R,5R)-3-((5-(benzo[d]thiazol-2-yl)-2-((3-fluorophenyl)amino)pyrimidin-4-yl)amino)-5-(hydroxymethyl)cyclopentane-1,2-diol] came in with a 50% inhibitory concentration (IC50) of 62 nM.

Turning to `NC(=O)Cc1cccc(Nc2ncc(-c3nc4ccccc4s3)c(N[C@@H]3C[C@H](CO)[C@@H](O)[C@H]3O)n2)c1` [Example 14, 2-(3-((5-(benzo[d]thiazol-2-yl)-4-(((1R,2S,3R,4R)-2,3-dihydroxy-4-(hydroxymethyl)cyclopentyl)amino)pyrimidin-2-yl)amino)phenyl)acetamide], the IC50 was determined as 5.4 nM.

Turning to `OC[C@H]1C[C@@H](Nc2nc(NCC3CC3)ncc2-c2nc3ccccc3s2)[C@H](O)[C@@H]1O` [Example 15, (1R,2S,3R,5R)-3-((5-(benzo[d]thiazol-2-yl)-2-((cyclopropylmethyl)amino)pyrimidin-4-yl)amino)-5-(hydroxymethyl)cyclopentane-1,2-diol], the half-inhibitory concentration (IC50) stood at 333 nM.

Turning to `COCCCNc1ncc(-c2nc3ccccc3s2)c(N[C@@H]2C[C@H](CO)[C@@H](O)[C@H]2O)n1` [Example 16, (1R,2S,3R,5R)-3-((5-(benzo[d]thiazol-2-yl)-2-((3-methoxypropyl)amino)pyrimidin-4-yl)amino)-5-(hydroxymethyl)cyclopentane-1,2-diol], it took 228 nM to reach half-maximal inhibition (IC50).

As for `OC[C@H]1C[C@@H](Nc2nc(NC3CCOCC3)ncc2-c2nc3ccccc3s2)[C@H](O)[C@@H]1O` [Example 17, (1R,2S,3R,5R)-3-((5-(benzo[d]thiazol-2-yl)-2-((tetrahydro-2H-pyran-4-yl)amino)pyrimidin-4-yl)amino)-5-(hydroxymethyl)cyclopentane-1,2-diol], the 50% inhibitory concentration (IC50) turned out to be 1080 nM.

Turning to `OC[C@H]1C[C@@H](Nc2nc(NC3CCCCC3)ncc2-c2nc3ccccc3s2)[C@H](O)[C@@H]1O` [Example 18, (1R,2S,3R,5R)-3-((5-(benzo[d]thiazol-2-yl)-2-(cyclohexylamino)pyrimidin-4-yl)amino)-5-(hydroxymethyl)cyclopentane-1,2-diol], half-maximal inhibition (IC50) required 3010 nM.

`Nc1ncc(-c2ccc3ccccc3n2)c(N[C@@H]2C[C@H](CO)[C@@H](O)[C@H]2O)n1` [Example 19, (1R,2S,3R,5R)-3-((2-amino-5-(quinolin-2-yl)pyrimidin-4-yl)amino)-5-(hydroxymethyl)cyclopentane-1,2-diol] had a concentration for half-maximal inhibition (IC50) of 104 nM.

The compound `Nc1ncc(-c2nc3cnccc3s2)c(N[C@@H]2C[C@H](CO)[C@@H](O)[C@H]2O)n1` [Example 20, (1R,2S,3R,5R)-3-((2-amino-5-(thiazolo[4,5-c]pyridin-2-yl)pyrimidin-4-yl)amino)-5-(hydroxymethyl)cyclopentane-1,2-diol] came in with a concentration for half-maximal inhibition (IC50) of 24 nM.

`Nc1ncc(-c2nc3ccncc3s2)c(N[C@@H]2C[C@H](CO)[C@@H](O)[C@H]2O)n1` [Example 21, (1R,2S,3R,5R)-3-((2-amino-5-(thiazolo[5,4-c]pyridin-2-yl)pyrimidin-4-yl)amino)-5-(hydroxymethyl)cyclopentane-1,2-diol]: the IC50 worked out at 16 nM.

`OC[C@H]1C[C@@H](Nc2nc(Nc3ccccc3O)ncc2-c2nc3ccccc3s2)[C@H](O)[C@@H]1O` [Example 22, (1R,2S,3R,5R)-3-((5-(benzo[d]thiazol-2-yl)-2-((2-hydroxyphenyl)amino)pyrimidin-4-yl)amino)-5-(hydroxymethyl)cyclopentane-1,2-diol] registered an IC50 of 1240 nM.

Regarding `OC[C@H]1C[C@@H](Nc2nc(Nc3ccc4[nH]ccc4c3)ncc2-c2nc3ccccc3s2)[C@H](O)[C@@H]1O` [Example 23, (1R,2S,3R,5R)-3-((2-((1H-indol-5-yl)amino)-5-(benzo[d]thiazol-2-yl)pyrimidin-4-yl)amino)-5-(hydroxymethyl)cyclopentane-1,2-diol], the IC50 was found to be 20 nM.

`OC[C@H]1C[C@@H](Nc2nc(Nc3ccc4cc[nH]c4c3)ncc2-c2nc3ccccc3s2)[C@H](O)[C@@H]1O` [Example 24, (1R,2S,3R,5R)-3-((2-((1H-indol-6-yl)amino)-5-(benzo[d]thiazol-2-yl)pyrimidin-4-yl)amino)-5-(hydroxymethyl)cyclopentane-1,2-diol] returned a half-maximal inhibitory concentration (IC50) of 22 nM.

`OC[C@H]1C[C@@H](Nc2nc(Nc3ccncn3)ncc2-c2nc3ccccc3s2)[C@H](O)[C@@H]1O` [Example 25, (1R,2S,3R,5R)-3-((5-(benzo[d]thiazol-2-yl)-2-(pyrimidin-4-ylamino)pyrimidin-4-yl)amino)-5-(hydroxymethyl)cyclopentane-1,2-diol]: the concentration for half-maximal inhibition (IC50) was found to be 34 nM.

As for `OC[C@H]1C[C@@H](Nc2nc(Nc3cncnc3)ncc2-c2nc3ccccc3s2)[C@H](O)[C@@H]1O` [Example 26, (1R,2S,3R,5R)-3-((5-(benzo[d]thiazol-2-yl)-2-(pyrimidin-5-ylamino)pyrimidin-4-yl)amino)-5-(hydroxymethyl)cyclopentane-1,2-diol], the IC50 amounted to 4.8 nM.

In turn, `NC(=O)c1cccc(Nc2ncc(-c3nc4ccccc4s3)c(N[C@@H]3C[C@H](CO)[C@@H](O)[C@H]3O)n2)c1` [Example 27, 3-((5-(benzo[d]thiazol-2-yl)-4-(((1R,2S,3R,4R)-2,3-dihydroxy-4-(hydroxymethyl)cyclopentyl)amino)pyrimidin-2-yl)amino)benzamide] came in with an IC50 of 5.3 nM.

`NC(=O)Cc1ccc(Nc2ncc(-c3nc4ccccc4s3)c(N[C@@H]3C[C@H](CO)[C@@H](O)[C@H]3O)n2)cc1` [Example 29, 2-(4-((5-(benzo[d]thiazol-2-yl)-4-(((1R,2S,3R,4R)-2,3-dihydroxy-4-(hydroxymethyl)cyclopentyl)amino)pyrimidin-2-yl)amino)phenyl)acetamide] yielded an IC50 of 10 nM.

`OC[C@H]1C[C@@H](Nc2nc(Nc3ccncc3F)ncc2-c2nc3ccccc3s2)[C@H](O)[C@@H]1O` [Example 30, (1R,2S,3R,5R)-3-((5-(benzo[d]thiazol-2-yl)-2-((3-fluoropyridin-4-yl)amino)pyrimidin-4-yl)amino)-5-(hydroxymethyl)cyclopentane-1,2-diol]: the 50% inhibitory concentration (IC50) worked out at 44 nM.

Compound `Cc1cc(Nc2ncc(-c3nc4ccccc4s3)c(N[C@@H]3C[C@H](CO)[C@@H](O)[C@H]3O)n2)ccn1` [Example 31, (1R,2S,3R,5R)-3-((5-(benzo[d]thiazol-2-yl)-2-((2-methylpyridin-4-yl)amino)pyrimidin-4-yl)amino)-5-(hydroxymethyl)cyclopentane-1,2-diol] showed a half-maximal inhibitory concentration (IC50) of 1.2 nM.

The values above are taken from patent US9598440B2, “Inhibitors of IRAK4 activity” (MERCK SHARP & DOHME CORP., priority 2012, dated 2017).
